Consider nine compounds from PubChem BioAssay (NCI).

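Cells were grown in 96-well plates and exposed to each compound for 48 hours at five concentrations; endpoints were interpolated linearly between bracketing concentrations, or set to the highest concentration if not reached. At the GI50, growth is halved. At the TGI there is no net growth.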 Bounds are passed on as bounds.

What all share (assay): growth of human tumour cells (NCI), 48 h
Experiment [1] concerns A498 renal.
Experiment [2] relates to EKVX NSCLC.
Experiment [3] relates to HT29 colon.
Experiment [4] relates to LOX IMVI melanoma.
The test system of experiment [5] is NCI-H226 lung.
Experiment [6] relates to NCI-H23 lung.
The test system of experiment [7] is RXF 393 renal.
Experiment [8] relates to SK-MEL-5 melanoma.
The subject of experiment [9] is UACC-62 melanoma.

On to `CSC(CC(=O)O)C(=O)O` (stereo unspecified), for which the TGI in experiment [1], in [2], in experiment [3], in experiment [4], in experiment [5] and in experiment [6] was over 100 µM throughout. The TGI in [7], in experiment [8] and in experiment [9] was over 100 µM throughout.
In the case of `C=CCN(/C=C1/C(=O)O[C@H](COC)[C@@]2(C)C1=C(O)C(=O)C1=C2[C@H](OC(C)=O)C[C@]2(C)C(=O)CC[C@@H]12)CC=C`, the GI50 in experiment [1] was 0.0205 µM; in [2], 0.828 µM; in experiment [3], 0.422 µM; in [4], 1.65 µM; in experiment [5], 2.57 µM; in [6], over 5.65 µM. The GI50 in [7] was 0.112 µM; in experiment [8] it was 3.16 µM; in [9], 0.144 µM. Further, the TGI was 0.103 µM in experiment [1]; over 10 µM in [2]; over 10 µM in [3]; over 10 µM in experiment [4]; over 10 µM in [5]; over 10 µM in experiment [6]. In addition, the TGI in [7] is 1.56 µM; in experiment [8], over 10 µM; in [9], 4.45 µM.
For `CC(C)CNCC(O)COc1ccc(C(C)(C)c2ccc(OCC(O)CNCC(C)C)cc2)cc1` (stereo unspecified), the GI50 in [1] is 11.3 µM; in experiment [2] it was 3.78 µM; in experiment [3], 1.62 µM; in experiment [4], 1.57 µM; in experiment [5], 8.27 µM; in experiment [6], 11.7 µM. The GI50 in [7] is 1.66 µM; in [8], 1.68 µM; in experiment [9] it was 1.82 µM. The TGI stood at 25.1 µM in experiment [1]; 17.8 µM in experiment [2]; 3.26 µM in experiment [3]; 3.04 µM in [4]; 26.2 µM in [5]; 25.5 µM in [6]. The results for the TGI in experiment [7], in experiment [8] and in [9] were 3.67 µM, 3.05 µM and 3.4 µM, respectively.
On to `O=C(Nc1ccc(Cl)cc1Cl)C(=O)C(C(=O)c1ccc2ccccc2c1)C1OC(=O)c2ccccc21` (stereo unspecified), for which the TGI came out at 20.2 µM in [1]; 35.9 µM in experiment [2]; 33.1 µM in experiment [3]; 24.9 µM in [4]; 6.33 µM in [5]; 13.1 µM in [6]. The TGI in experiment [7] came out at 11.7 µM; in [8], 26.1 µM; in [9] it was 46.7 µM.
`COc1ccc(-c2cc(=O)c3c(C)cc(C)nc3[nH]2)cc1`: the TGI in [1], in experiment [2], in experiment [3], in experiment [4], in [5] and in [6] was over 100 µM in each case. Further, the TGI in experiment [7] was over 100 µM; in experiment [8] it was 33.1 µM; in experiment [9], 46.6 µM. The GI50 in [8] was 17.6 µM.
Regarding `Cc1ccc(/C(=N\N=C(N)N)c2ccccc2)cc1`, the GI50 was 0.272 µM in experiment [1]; 0.998 µM in experiment [2]; 0.344 µM in experiment [3]; 0.611 µM in [4]; 0.726 µM in experiment [5]; 0.597 µM in experiment [6]. Besides, the GI50 was 0.296 µM in [7], 0.353 µM in experiment [8] and 0.438 µM in [9]. Moreover, the TGI was found to be 1.02 µM in experiment [1]; 26 µM in [2]; 5.73 µM in [3]; 12.5 µM in experiment [4]; 10.1 µM in [5]; 9.98 µM in experiment [6]. Also, the TGI in experiment [7] amounted to 2.9 µM; in [8], 1.73 µM; in [9], 15.8 µM.
Take `FC(F)(F)c1cc(-c2nnc3n2N=C(N2CCCC2)CS3)cc(C(F)(F)F)c1`: the GI50 in [1] was over 50 µM; in [2] it was over 50 µM; in [3], over 50 µM; in experiment [4], over 50 µM; in experiment [5], 24.6 µM; in [6] it was over 50 µM. In addition, the GI50 was 26.6 µM in experiment [7], over 50 µM in experiment [8] and over 50 µM in experiment [9]. Moreover, the TGI in experiment [1], in experiment [2], in experiment [3], in [4], in [5] and in experiment [6] was over 50 µM each time. For the same compound, the TGI in experiment [7], in experiment [8] and in experiment [9] was over 50 µM in each case.
Consider `CCC(=O)O[C@H]1CC[C@H]2[C@@H]3CC[C@H]4CC(=O)[C@H](C)C[C@]4(C)[C@H]3CC[C@]12C`, for which the GI50 in experiment [1] was 28 µM; in [2], 22.1 µM; in [3], 19.2 µM; in experiment [4], 25.2 µM; in [5], over 96.2 µM; in [6], 43.6 µM. Also, the GI50 is 30.5 µM in experiment [7], 5.89 µM in [8] and 13.9 µM in experiment [9]. The TGI in experiment [1], in experiment [2], in [3], in experiment [4], in experiment [5] and in experiment [6] was over 100 µM in each case. Also, the TGI in [7] is over 100 µM; in experiment [8], over 60.9 µM; in [9], over 100 µM.
In the case of `CCc1n(Cc2ccc3ccccc3n2)cc[n+]1Cc1ccc2ccccc2n1`, the GI50 was 0.303 µM in experiment [1]; 0.343 µM in experiment [2]; 0.263 µM in experiment [3]; 0.596 µM in experiment [4]; 2.56 µM in experiment [5]; 0.257 µM in experiment [6]. The GI50 in [7] is 0.982 µM; in [8], 0.0653 µM; in experiment [9], 0.186 µM. Moreover, the TGI in experiment [1] stood at 9.38 µM; in experiment [2] it was 41.5 µM; in experiment [3], 12 µM; in experiment [4], 13.2 µM; in [5], 30.8 µM; in experiment [6], 8.66 µM. The TGI in experiment [7] was 13 µM; in experiment [8] it was 1.02 µM; in experiment [9], 3.05 µM.
